pEC50: −log10 of the molar value. Where two headings read alike, the source gives them in different places.
System: HIV-1
Assay: HIV-1 single-round infectious luciferase reporter virus (pseudotype) assay in HeLa CD4 CCR5 cells
Assay type: cell-based
Procedure: • Virus production—Human embryonic Kidney cell line, 293, propagated in Dulbecco's Modified Eagle Medium (Life Technologies, Gaithersburg, Md.) containing 10% fetal Bovine serum (FBS, Sigma, St. Louis, Mo.). • Virus infection—Human epithelial cell line, HeLa, expressing the HIV-1 receptors CD4 and CCR^5 was propagated in Dulbecco's Modified Eagle Medium (Life Technologies, Gaithersburg, Md.) containing 10% fetal Bovine serum (FBS, Sigma, St. Louis, Mo.) and supplemented with 0.2 mg/mL Geneticin (Life Technologies, Gaithersburg, Md.) and 0.4 mg/mL Zeocin (Invitrogen, Carlsbad, Calif.). […] Transfections were performed using lipofectAMINE PLUS reagent as described by the manufacturer (Life Technologies, Gaithersburg, Md.). Experiment • 1. Compound was added to HeLa CD4 CCR5 cells plated in 96 well plates at a cell density of 5×10^4 cells per well in 100 μl Dulbecco's Modified Eagle Medium containing 10% fetal Bovine serum at a concentration of […]. • 2. 100 μl of single-round infectious reporter virus in Dulbecco's Modified Eagle Medium was then added to the plated cells and compound at an approximate multiplicity of infection (MOI) of 0.01, resulting in a final volume of 200 μl per well and a final compound concentration of <10 μM. • 3. Samples were harvested 72 h after infection. • 4. Viral infection was monitored by measuring luciferase expression from viral DNA in the infected cells using a luciferase reporter gene assay kit (Roche Molecular Biochemicals, Indianapolis, Ind.). Infected cell supernatants were removed and 50 μl of Dulbecco's Modified Eagle Medium (without phenol red) and 50 μl of luciferase assay reagent reconstituted as described by the manufacturer (Roche Molecular Biochemicals, Indianapolis, Ind.) was added per well. Luciferase activity was then quantified by measuring luminescence using a Wallac microbeta scintillation counter. • 5. […] An EC50 provides a method for comparing the antiviral potency of the compounds of this invention. The effective concentration for fifty percent inhibition (EC50) was calculated with the Microsoft Excel Xlfit curve fitting software. For each compound, curves were generated from percent inhibition calculated at 10 different concentrations by using a four paramenter logistic model (model 205). Table 1 is the key for the data in Tables 2-4. Cytoxicity assays were conducted with the same HeLa using methodology well known in the art.
In Table 5, X2, X4 etc. indicates the point of attachment. […] The data at 10 μM was calculated in the following manner:
For compounds tested at concentrations less than 10 μM, the percent inhibition at 10 μM was determined by extrapolation using the XLfit curve fitting feature of the Microsoft Excel spreadsheet software. Curves were obtained from 10 data points (% inhibition determined at 10 concentrations of compound) by using a four parameter logistic model (XLfit model 205: y=A+((B−A)/(I+((C/x)^D))), where, A=minimum y, B=maximum y, C=logEC50, D=slope factor, and x and y are known data values. Extrapolations were performed with the A and B parameters unlocked. […]

[1] = Human immunodeficiency virus 1, HeLa-CD4/CCR5, read-out: EC50 Group from TABLE 1, HeLa CD4 CCR5 cells, single-round infectious luciferase reporter virus
[2] = Human immunodeficiency virus 1, HeLa-CD4/CCR5, read-out: EC50 Group from Table 1, Table 4, HeLa CD4 CCR5 cells, single-round luciferase reporter virus
[3] = Human immunodeficiency virus 1, HeLa-CD4/CCR5, read-out: EC50 Group from Table 1, Table 2-1, HeLa CD4 CCR5 cells, single-round luciferase reporter virus

SMILES	pEC50 [1]	other results
COc1cnc(-n2ccc(CN3CCS(=O)(=O)CC3)n2)c2[nH]cc(C(=O)C(=O)N3CCN(C(=O)c4ccccc4)CC3)c12 [Example 280, 1-benzoyl-4-[(4-methoxy-7-(3-(1,1-dioxo-thiomorpholin-4-yl)methyl-pyrazol-1-yl)-6-azaindol-3-yl)-oxoacetyl]piperazine]	> 6.00	–
COC(=O)c1ccc(-c2ccn(-c3ncc(OC)c4c(C(=O)C(=O)N5CCN(C(=O)c6ccccc6)CC5)c[nH]c34)n2)cc1 [Example 293, 1-benzoyl-4-[(4-methoxy-7-(3-(4-methoxycarbonylphenyl)-pyrazol-1-yl)-6-azaindol-3-yl)-oxoacetyl]piperazine]	> 6.00	–
CON(C)C(=O)c1cc(Cl)nc2c(C(=O)C(=O)N3CCN(C(=O)c4ccccc4)C[C@H]3C)c[nH]c12 [Example 58, 1-benzoyl-3-(R)-methyl-4-[(5-chloro-(7-(methoxymethylamino)carbonyl)-4-azaindol-3-yl)-oxoacetyl]piperazine]	–	pEC50 [2]: > 6.00
COc1cnc(-n2ccc(-c3cccc(C(F)(F)F)c3)n2)c2[nH]cc(C(=O)C(=O)N3CCN(C(=O)c4ccccc4)CC3)c12 [Example 287, 1-benzoyl-4-[(4-methoxy-7-(3-(3-trifluoromethyl-phenyl)-pyrazol-1-yl)-6-azaindol-3-yl)-oxoacetyl]piperazine]	> 6.00	–
COc1cccc(-c2ncc(OC)c3c(C(=O)C(=O)N4CCN(C(=O)c5ccccc5)CC4)c[nH]c23)n1 [Example 77, 1-benzoyl-4-[(4-methoxy-7-(2-methoxy-pyridin-6-yl)-6-azaindol-3-yl)-oxoacetyl]piperazine]	> 6.00	–
COc1cnc(-c2cnc(N)nc2)c2[nH]cc(C(=O)C(=O)N3CCN(C(=O)c4ccccc4)CC3)c12 [Example 24]	> 6.00	–
C[C@@H]1CN(C(=O)c2ccccc2)CCN1C(=O)C(=O)c1c[nH]c2c(-c3ccco3)nccc12 [Example 6, 1-benzoyl-3-®-methyl-4-[(7-(furan-2-yl)-6-azaindol-3-yl)-oxoacetyl]piperazine]	> 6.00	–
COc1cnc(-n2ccc(N)n2)c2[nH]cc(C(=O)C(=O)N3CCN(C(=O)c4ccccc4)[C@H](C)C3)c12 [Example 253, (R)-1-benzoyl-2-methyl-4-[(4-methoxy-7-(3-amino-pyrazol-1-yl)-6-azaindol-3-yl)-oxoacetyl]piperazine]	–	pEC50 [3]: > 6.00
CCCOC(=O)N1CCN(C(=O)C(=O)c2c[nH]c3c(-c4cnccn4)ncc(OC)c23)CC1 [Example 199]	> 6.00	–
C[C@@H]1CN(C(=O)c2ccccc2)CCN1C(=O)C(=O)c1c[nH]c2c(-c3cccc(N)n3)nccc12 [Example 112, (R)-1-benzoyl-3-methyl-4-[(7-(2-amino-pyridin-6-yl)-6-azaindol-3-yl)-oxoacetyl]piperazine]	> 6.00	–
Cc1csc(NC(=O)c2ccnc3c(C(=O)C(=O)N4CCN(C(=O)c5ccccc5)C[C@H]4C)c[nH]c23)n1 [Example 136, (R)-1-benzoyl-3-methyl-4-[(7-(4-methylthiazol-2-yl)aminocarbonyl-4-azaindol-3-yl)-oxoacetyl]piperazine]	–	pEC50 [2]: > 6.00
CCCc1ccn(-c2ncc(OC)c3c(C(=O)C(=O)N4CCN(C(=O)c5ccccc5)[C@H](C)C4)c[nH]c23)n1 [Example 231, (R)-1-benzoyl-2-methyl-4-[(4-methoxy-7-(3-propyl-pyrazol-1-yl)-6-azaindol-3-yl)-oxoacetyl]piperazine]	–	pEC50 [3]: > 6.00
COc1cnc(-c2cc3ccccc3o2)c2[nH]cc(C(=O)C(=O)N3CCN(C(=O)c4ccccc4)CC3)c12 [Example 98]	> 6.00	–
CCOC(=O)c1cc(-c2ncc(F)c3c(C(=O)C(=O)N4CCN(C(=O)c5ccccc5)CC4)c[nH]c23)n[nH]1 [Example 209]	> 6.00	–
CCN(CC)C(=O)c1cnc(-c2ncc(OC)c3c(C(=O)C(=O)N4CCN(C(=O)c5ccccn5)CC4)c[nH]c23)cn1 [Example 184, 1-picolinoyl-4-[(4-methoxy-7-(2-diethylaminocarbonyl-pyrazin-5-yl)-6-azaindol-3-yl)-oxoacetyl]piperazine]	> 6.00	–
Cc1noc(C)c1-c1ccnc2c(C(=O)C(=O)N3CCN(C(=O)c4ccccc4)C[C@H]3C)c[nH]c12 [Example 130]	–	pEC50 [2]: > 6.00

SMILES	pEC50 [1]	other results
C[C@H]1CN(C(=O)c2ccccn2)CCN1C(=O)C(=O)c1c[nH]c2c(-c3cnc(N(C)C)cn3)nccc12 [Example 106, (S)-1-picolinoyl-3-methyl-4-[(7-(2-dimethylamino-pyrazin-5-yl)-6-azaindol-3-yl)-oxoacetyl]piperazine]	> 6.00	–
COc1cnc(-c2ccnnc2)c2[nH]cc(C(=O)C(=O)N3CCN(C(=O)c4ccccc4)CC3)c12 [Example 23, l-benzoyl-4-[(4-methoxy-7-(pyridazin-4-yl)-6-azaindol-3-yl)-oxoacetyl]piperazine]	> 6.00	–
C[C@@H]1CN(C(=O)c2ccccc2)CCN1C(=O)C(=O)c1c[nH]c2c(-c3cccs3)ccnc12 [Example 128]	–	pEC50 [2]: > 6.00
COc1cnc(-n2ccc(C(C)C)n2)c2[nH]cc(C(=O)C(=O)N3CCN(C(=O)c4ccccc4)CC3)c12 [Example 249, 1-benzoyl-4-[(4-methoxy-7-(3-iso-propyl-pyrazol-1-yl)-6-azaindol-3-yl)-oxoacetyl]piperazine]	> 6.00	–
COc1cnc(-c2cnc(N3CCCC3=O)s2)c2[nH]cc(C(=O)C(=O)N3CCN(C(=O)c4ccccc4)CC3)c12 [Example 116, 1-benzoyl-4-[(4-methoxy-7-((2-pyrrolidinon-1-yl)-thiazol-5-yl)-6-azaindol-3-yl)-oxoacetyl]piperazine]	> 6.00	–
C[C@@H]1CN(C(=O)c2ccccc2)CCN1C(=O)C(=O)c1c[nH]c2c(-c3ccc(N)cn3)nccc12 [Example 114, (R)-1-benzoyl-3-methyl-4-[(7-(5-amino-pyridin-2-yl)-6-azaindol-3-yl)-oxoacetyl]piperazine]	> 6.00	–
COc1cnc(-c2cnc(N3CCCC3)cn2)c2[nH]cc(C(=O)C(=O)N3CCN(C(=O)c4ccccn4)CC3)c12 [Example 185]	> 6.00	–
CCOC(=O)c1cc(-c2ccnc3c(C(=O)C(=O)N4CCN(C(=O)c5ccccc5)CC4)c[nH]c23)n[nH]1 [Example 202, 5-{3-[2-(4-Benzoyl-piperazin-1-yl)-2-oxo-acetyl]-1H-pyrrolo[3,2-b]pyridin-7-yl}-2H-pyrazole-3-carboxylic acid ethyl ester]	–	pEC50 [2]: > 6.00
COc1cnc(-n2ccc(CN(C)C)n2)c2[nH]cc(C(=O)C(=O)N3CCN(C(=O)c4ccccc4)[C@H](C)C3)c12 [Example 239, (R)-1-benzoyl-2-methyl-4-[(4-methoxy-7-(3-(N,N-dimethylamino)methyl-pyrazol-1-yl)-6-azaindol-3-yl)-oxoacetyl]piperazine]	–	pEC50 [3]: > 6.00
C[C@@H]1CN(C(=O)c2ccccc2)CCN1C(=O)C(=O)c1c[nH]c2c(-c3ccc(N)nc3)nccc12 [Example 113, (R)-1-benzoyl-3-methyl-4-[(7-(2-amino-pyridin-5-yl)-6-azaindol-3-yl)-oxoacetyl]piperazine]	> 6.00	–
O=C(C(=O)N1CCN(C(=O)c2ccccc2)CC1)c1c[nH]c2c(-c3ccnnc3)ncc(F)c12 [Example 30, 1-benzoyl-4-[(4-fluoro-7-(pyridazin-4-yl)-6-azaindol-3-yl)-oxoacetyl]piperazine]	> 6.00	–
COc1cnc(N(c2ccccn2)S(C)(=O)=O)c2[nH]cc(C(=O)C(=O)N3CCN(C(=O)c4ccccc4)CC3)c12 [Example 331]	> 6.00	–
C[C@@H]1CN(C(=O)c2ccccc2)CCN1C(=O)C(=O)c1c[nH]c2c(-c3cc4ccccc4s3)ccnc12 [Example 127]	–	pEC50 [2]: > 6.00
O=C(C(=O)N1CCN(C(=O)c2ccc(Br)o2)CC1)c1c[nH]c2c(-c3ncon3)ncc(F)c12 [Example 167]	> 6.00	–
COc1cnc(-n2ccc(C3(O)CCCC3)n2)c2[nH]cc(C(=O)C(=O)N3CCN(C(=O)c4ccccc4)CC3)c12 [Example 282, 1-benzoyl-4-[(4-methoxy-7-(3-(1-hydroxy-cyclopentyl)-pyrazol-1-yl)-6-azaindol-3-yl)-oxoacetyl]piperazine]	> 6.00	–
